Test results taken from patent US6528675B1, “Cyanohydrin ethers and esters as high-sensitivity enzyme substrates” (The Regents of the University of California, priority 2001, dated 2003).

Tests used:
cytochrome P450 = experiment: Substrate response to P450 enzyme activity, rat microsomal enzyme preparation; type: biochemical, rats; conditions: pH 7.6, 37° C., substrate 10 mM final concentration, average of three tests
Source text: This example compares four cytochrome P450 substrates within the scope of this invention with two cytochrome P450 substrates that are outside the scope of this invention. The four invention substrates were methoxynaphthalen-2-yl acetonitrile (whose synthesis is shown in Example 8 above and which is designated below as Compound III), ethoxynaphthalen-2-yl acetonitrile (synthesis shown in Example 9, Compound IV), benzoxynaphthalen-2-yl acetonitrile (synthesis shown in Example 10, Compound V), and pentoxynaphthalen-2-yl acetonitrile (synthesis shown in Example 11, Compound VI). The substrates outside the scope of the invention were ethoxyresorufin (designated below as Compound A) and pentoxyresorufin (designated below as Compound B). The structures of these last two substrates are as follows: [drawing 56]
All substrates were tested against a microsomal enzyme preparation from 8-week-old Fisher […] rats, by first combining 890 mL of the preparation with 2 mL of phosphate buffer (pH 7.6, 0.2 M) and incubating the mixture at 37° C. for 5 minutes. The substrate (10 mL) was then added (10 mM final concentration), followed by an appropriate signal generating system (100 mL). The samples were immediately read by fluorometer at 460 nm for 1 minute with excitation at 330 nm. The results in terms of specific activity, both with and without the enzyme system, are shown in Table VII, in which each entry represents an average of three tests.

[1] = Change in optical properties, UV absorption of esters and hydrolysis products; type: physicochemical; conditions: for ε (molar absorptivity): in M-1 cm-1 (unit assumed)
Source text: The substrates representing the invention were (R/S)-acetic acid cyano-(6-methoxynaphthalen-2-yl)-methyl ester (the title compound of Synthesis Example 1 above) and (trans/cis)-3-(2,2-dichlorovinyl)-2,2-dimethylcyclopropanecarboxylic acid cyano-(6-methoxynaphthalen-2-yl)-methyl ester (the title compound of Synthesis Example 2 above).

[2] = Change in optical properties, fluorescence of esters and hydrolysis products; type: physicochemical
Source text: The substrates representing the invention were (R/S)-acetic acid cyano-(6-methoxynaphthalen-2-yl)-methyl ester (the title compound of Synthesis Example 1 above) and (trans/cis)-3-(2,2-dichlorovinyl)-2,2-dimethylcyclopropanecarboxylic acid cyano-(6-methoxynaphthalen-2-yl)-methyl ester (the title compound of Synthesis Example 2 above). The substrates of the prior art were methylumbelyl acetate (for detection by fluorescence emission) and 2-naphthacetate (for detection by UV absorption) in assay solutions with different pH values. These prior art substrates were selected because both are widely used and both have aromatic systems similar to the two test compounds.
Again using tris-maleate at pH levels of 6.5, 7.5, and 8.5, fluorescence studies were performed at concentrations of 10 μM, and fluorescence of the starting esters and the hydrolysis products (hydroxycoumarin in the case of methylumbelyl acetate and 6-methoxy-naphthaldehyde in the case of the Example 1 substrate) were determined by conventional instrumentation. The results are listed in Table III in which “MUA” denotes methylumbelyl acetate, “Compound I” denotes the Example 1 substrate, “Ex” denotes the optimal excitation wavelength in nm, “Emmax” denotes the maximal emission wavelength in nm, and “RFU” denotes the relative fluorescence units multiplied by 1,000.

N#CC(OCc1ccccc1)c1ccc2ccccc2c1 (stereo not drawn)
melting point: 36 to 37 °C

CCC1OC1CC(=O)OC(C#N)c1ccc2ccccc2c1 (stereo not drawn)
melting point: 60 to 61 °C

N#CC(OC(=O)C/C=C/c1ccccc1)c1ccc2ccccc2c1 (stereo not drawn)
melting point: 74 to 75 °C

CC(=O)OC(C#N)c1ccc2ccccc2c1 (racemic)
melting point: 37 to 38 °C

CCOc1ccc2nc3ccc(=O)cc-3oc2c1 [Compound A, ethoxyresorufin, reference compound]
Specific Activity, With Enzyme System (cytochrome P450): 89.0 ± 4.6 pmol/min/mg protein | Specific Activity, Without Enzyme System (cytochrome P450): 52.2 ± 1.9 pmol/min/mg protein

CCCCCOc1ccc2nc3ccc(=O)cc-3oc2c1 [Compound B, pentoxyresorufin, reference compound]
Specific Activity, With Enzyme System (cytochrome P450): 62.5 ± 5.2 pmol/min/mg protein | Specific Activity, Without Enzyme System (cytochrome P450): 41.8 ± 2.2 pmol/min/mg protein

COC(C#N)c1ccc2ccccc2c1 (stereo not drawn) [Compound III, Methoxynaphthalene-2-yl Acetonitrile]
Specific Activity, With Enzyme System (cytochrome P450): 275.8 ± 20.5 pmol/min/mg protein | Specific Activity, Without Enzyme System (cytochrome P450): 45.9 ± 3.0 pmol/min/mg protein | melting point: 47 to 48 °C

CCOC(C#N)c1ccc2ccccc2c1 (stereo not drawn) [Compound IV, Ethoxynaphthalene-2-yl Acetonitrile]
Specific Activity, With Enzyme System (cytochrome P450): 292.6 ± 16.2 pmol/min/mg protein | Specific Activity, Without Enzyme System (cytochrome P450): 40.0 ± 1.2 pmol/min/mg protein | melting point: 53 to 54 °C

COc1ccc2cc(C=O)ccc2c1 [aldehyde, 6-methoxy-2-naphthaldehyde]
OD (optical density) ([1]; tris-maleate pH 6.5, 10 μM): 0.473 | λmax ([1]; tris-maleate pH 6.5, 10 μM): 314 nm | ε (molar absorptivity) ([1]; tris-maleate pH 6.5, 10 μM): 11,870 | OD (optical density) ([1]; tris-maleate pH 7.5, 10 μM): 0.468 | λmax ([1]; tris-maleate pH 7.5, 10 μM): 313 nm | ε (molar absorptivity) ([1]; tris-maleate pH 7.5, 10 μM): 11,700 | OD (optical density) ([1]; tris-maleate pH 8.5, 10 μM): 0.465 | λmax ([1]; tris-maleate pH 8.5, 10 μM): 314 nm | ε (molar absorptivity) ([1]; tris-maleate pH 8.5, 10 μM): 11,630 | emission peak ([2]; over the three pH levels tested (6.5, 7.5, 8.5)): 460 nm | Emmax (maximal emission wavelength) ([2]; tris-maleate pH 6.5, 10 μM): 450 nm | Ex (optimal excitation wavelength) ([2]; tris-maleate pH 6.5, 10 μM): 360 nm | RFU (relative fluorescence units multiplied by 1,000) ([2]; tris-maleate pH 6.5, 10 μM): 17,783 RFU | Emmax (maximal emission wavelength) ([2]; tris-maleate pH 7.5, 10 μM): 485 nm | Ex (optimal excitation wavelength) ([2]; tris-maleate pH 7.5, 10 μM): 360 nm | RFU (relative fluorescence units multiplied by 1,000) ([2]; tris-maleate pH 7.5, 10 μM): 19,250 RFU | Emmax (maximal emission wavelength) ([2]; tris-maleate pH 8.5, 10 μM): 510 nm | Ex (optimal excitation wavelength) ([2]; tris-maleate pH 8.5, 10 μM): 360 nm | RFU (relative fluorescence units multiplied by 1,000) ([2]; tris-maleate pH 8.5, 10 μM): 19,256 RFU

hydroxycoumarin [HO-coumarin]
Emmax (maximal emission wavelength) ([2]; tris-maleate pH 6.5, 10 μM): 460 nm | Ex (optimal excitation wavelength) ([2]; tris-maleate pH 6.5, 10 μM): 330 nm | RFU (relative fluorescence units multiplied by 1,000) ([2]; tris-maleate pH 6.5, 10 μM): 18,830 RFU | Emmax (maximal emission wavelength) ([2]; tris-maleate pH 7.5, 10 μM): 460 nm | Ex (optimal excitation wavelength) ([2]; tris-maleate pH 7.5, 10 μM): 330 nm | RFU (relative fluorescence units multiplied by 1,000) ([2]; tris-maleate pH 7.5, 10 μM): 19,025 RFU | Emmax (maximal emission wavelength) ([2]; tris-maleate pH 8.5, 10 μM): 460 nm | Ex (optimal excitation wavelength) ([2]; tris-maleate pH 8.5, 10 μM): 330 nm | RFU (relative fluorescence units multiplied by 1,000) ([2]; tris-maleate pH 8.5, 10 μM): 19,195 RFU
